Measurements from patent US20260347399A1, “BRAIN PENETRATING PEPTIDES AND METHODS OF USE” (priority 2022, published 2026).
Ends that are not written are not given here.

How the values were obtained:
mouse brain [1] = assay: In vivo play-off screen with 10 published CNS homing peptide-phages; conditions: phage pool i.v., 1 h; acid and detergent perfusion
Protocol: Play-off screen was carried out with 10 previously published BBB penetrating/CNS homing peptide-phages. […] Oligonucleotides were annealed and ligated into the phage genome using T7Select 415-1 cloning kit (Novagen) and the T7Select System Manual. Each peptide-phage was separately amplified in liquid bacterial culture, precipitated with PEG, recovered in PBS and titered. Phages were mixed in equimolar ratios and purified with CsCl-ultracentrifugation and dialysis. Titer of the play-off pool was determined and mice were intravenously injected with 1×10^10 pfu of phage pool. After one hour of circulation time, mice were perfused with acid buffer (500 mM NaCl, 0.1 M glycine, 1% BSA, pH2.5) and detergent buffer (1% NP40 in PBS), collected organs were homogenized and phage pools amplified for high-throughput sequencing.
Novel BBB penetrating and CNS homing peptide was identified in a step by step process including a phage play-off screens, alanine scanning mutagenesis and phage display with unique library. The first selection step included a phage play-off screen with ten previously published CNS homing peptides (Table 5). To ensure collecting BBB penetrating and CNS homing peptides, phage play-off pool was intravenously (iv) injected into the mice and perfusion was done with acid and detergent buffers to remove unbound phages and brake the endothelial layer of blood vessels. […]

mouse brain [2] = assay: In vivo phage display with CX4CYX library
Protocol: In vivo phage display with CX4CYX library was performed in three selection rounds. Phage library was injected intravenously to Balb/c mice and allowed to circulate for one hour. After circulation, the animals were anesthetized and perfused intracardially with acid and detergent buffers. Brain and control organs were collected and homogenized in 1% NP40-LB. Bound phages were rescued by amplification in E. coli and their genomic DNA was sequenced by Ion Torrent next generation DNA sequencing system.
A novel phage library CX4CYX was constructed based on the alanine-leucine screen to find new brain homing peptides). This knowledge directed us to construct a novel phage library CX4CYX (X—any amino acid), where Cys1, Cys6 and Tyr7 remained in their intact positions, and the four amino acid variable-domain laid between the cysteines, and one amino acid variability after Tyr7. Three rounds of phage bio-panning was performed to allow enrichment of peptides in the brain. Again acid and detergent buffers were used for perfusion to remove non-specifically bound phages from the brain after systemic administration of phage library (round 1) and recovered brain phage pools (round 2 and 3). HTS reads from round 1 to round 3 indicated decent enrichment of in-frame peptides in the brain (Table 6).

activated microglia = assay: FAM-CVG colocalization with activated microglia in glioma; format: in vivo, mouse; conditions: FAM-labelled, i.v., 1 h; WT GBM, glioma edge and core
Protocol: WT GBM glioma-bearing mice were injected iv with FAM-labelled CVG peptide for 1 hour circulation. Mice were perfused and tissues of interest were snap-frozen in the vapor of liquid nitrogen. Immunofluorescent staining was carried out with the following antibodies: FAM, CD68, CD11b and CD206.

mouse brain [3] = assay: In vivo play-off of alanine-scan peptide-phages; conditions: 5×10^9 pfu phage mix i.v., 1 h, HTS
Protocol: To determine which amino acid positions are important for brain homing of Cerepep, in vivo play-off method was used. A pool of T7 peptide-phages was created, where each amino acid of Cerepep sequence was changed one-by-by to alanine and alanines were changed to leucines. These clones, original Cerepep peptide-phage clone and control insertless phage were mixed in equimolar ratio and 5×10^9 pfu of phage mix was injected i.v. into male Balb/C mice (n=2). Following 1 h circulation the animals were anesthetized and perfused with PBS. The prevalence of phage clones in the brain was determined by high throughput sequencing.
To determine which amino acid positions are important for brain homing of SERVISRAKLAAAL (SEQ ID NO:9), a pool of peptide-phage clones was compiled, where every amino acid position was one-by-one changed to alanine (alanines were changed to leucines). […] The phage mix was injected into mice and following a 1 h circulation the amount of different phage clones in the brain was determined using HTS. […]
Based on studies involving in vivo play-off analyses, it was determined that Arginines and isoleucine are crucial for the brain homing of Cerepep (CP) peptide. Every position of CP peptide was one-by one mutated to alanine (alanines were changed to leucines) and the brain homing of each mutated peptide-phage was assessed using in vivo play-off method (FIG. 7C). […]

CAGALCY [reference compound]
representation in the brain (HTS reads) (mouse brain [1]): highest representation in the brain | R1 reads (mouse brain [2]; round 1): 3 reads | R3 reads (mouse brain [2]; round 3): 880 reads | R3 > R1 (ratio of sequencing reads between round 3 and round 1) (mouse brain [2]; round 3 / round 1): 293

FAM-labelled CVG peptide: 5(6)-carboxyfluorescein-labelled CVGTNCY peptide (not fully specified (N-terminus); cysteine pairing not given here; also: 5(6)-carboxyfluorescein label, position not given here)
colocalization with activated microglia markers CD68, CD11b and CD206 (activated microglia): colocalization with activated microglia markers CD68, CD11b and CD206 cells

RRVISRAKLAAAL
brain homing / brain accumulation of mutated peptide-phage (mouse brain [3]): appear to be necessary for brain homing
